We go through 20 molecules from US20260137706A1, “METHODS OF TREATING INFLAMMATORY DISEASES” (INTERLINE THERAPEUTICS, INC., priority 2023, published 2026).

SMILES strings stand for the structures. Bounds are passed on as bounds.

Experiment [1] addresses T1, GST-RIPK2 fusion protein (human RIPK2, amino acids 1-310) (Homo sapiens, UniProt O43353).
T1 construct: made in house; host or cells: baculovirus infected Sf9 cells
Kind of experiment: RIPK2 binding competition assay (TR-FRET, Tracer 199 displacement). The settings on record: 10 nM Tracer 199, 1 nM GST-RIPK2, read-out: RIPK2 IC50. An outline of the steps: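 IC50 derived from the TR-FRET emission ratio (665/620 nm, 337 nm excitation), normalized with no-inhibitor and no-enzyme controls. Incubation 45 min at 22 °C, pH 7.5 Tris buffer, with final 10 nM tracer, 1 nM Sf9-expressed GST-RIPK2 fragment (aa 1-310) and 0.5 nM Tb-labelled anti-GST.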

In experiment [2] the target is T2, binding of His-XIAP(BIR2)-avi fusion protein to GST-RIPK2 fusion protein (RIPK2/XIAP) (Homo sapiens, UniProt O43353).
T2 construct: made in house; host or cells: baculovirus infected Sf9 cells
T2 sequence (O43353 1-310 limits assumed): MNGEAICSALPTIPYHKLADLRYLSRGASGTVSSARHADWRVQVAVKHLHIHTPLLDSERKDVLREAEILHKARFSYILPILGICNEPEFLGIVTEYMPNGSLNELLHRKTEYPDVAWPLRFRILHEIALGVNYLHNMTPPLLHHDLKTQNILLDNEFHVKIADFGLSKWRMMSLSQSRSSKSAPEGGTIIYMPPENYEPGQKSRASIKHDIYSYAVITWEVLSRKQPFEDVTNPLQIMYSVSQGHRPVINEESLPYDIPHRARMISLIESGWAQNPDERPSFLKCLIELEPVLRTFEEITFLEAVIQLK
Kind of experiment: RIPK2-XIAP binding competition PPI assay (TR-FRET). The settings on record: RIPK2/XIAP binding competition PPI assay; for Emax: Amax, read-out: PPI Amax bin; for IC50: read-out: PPI IC50 bin. An outline of the steps: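 Compounds (in DMSO, 100-fold stock) incubated 120 min at 23 °C with 1 nM GST-RIPK2 (aa 1-310) and 25 nM His-XIAP(BIR2 aa 152-231)-avi, plus anti-His-XL665 and anti-GST-Tb, in pH 7.5 Tris buffer. Read-out: 665/520 nm emission ratio. Normalized to no-inhibitor (0%) and 50 nM GSK583 (−100%); Amax binned A–D.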

Experiment [3] relates to NF-κB pathway (SEAP) in THP1-Dual cells. The experiment can be described thus: THP-1 Dual cell SEAP assay (L18-MDP stimulated). In kind it is cell-based. The settings on record: Homo sapiens, THP1-Dual, read-out: NF-κB THP1 IC50 bin. Put shortly:
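IC50 values derive from non-linear regression of % inhibition, calculated against DMSO/L18-MDP-treated wells after media-only subtraction. NF-κB SEAP activity was read at OD 620-655 nm (QUANTI-Blue, 2 h, 37 °C) from supernatants of THP1-Dual cells. Cells had been compound-treated 30 min before overnight (20-24 h) stimulation with 10 ng/mL final L18-MDP.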

T1 sequence (O43353 1-310): as the sequence (O43353 1-310 limits assumed) above

For the molecule `COc1cc2ncc(-c3ccc4nc(N)ccc4c3)n2cc1S(=O)(=O)C(C)(C)C` [Example 89, 6-(6-(tert-butylsulfonyl)-7-methoxyimidazo[1,2-a]pyridin-3-yl)quinolin-2-amine], the IC50 in experiment [1] is 2.5 to 20 nM; in experiment [2], greater than 20 nM; in experiment [3], 250 to 1000 nM. Moreover, in experiment [2], the Emax was less than 30%.

As to `CC(C)(C)S(=O)(=O)c1cn2c(-c3cc(Cl)c(N)nc3F)cnc2cc1NCCO` [Example 256, 2-((3-(6-amino-5-chloro-2-fluoropyridin-3-yl)-6-(tert-butylsulfonyl)imidazo [1,2-a]pyridin-7-yl)amino)ethan-1-ol], the IC50 was 1 to 2.5 nM in experiment [1], less than 1 nM in experiment [2] and less than 50 nM in experiment [3]. In addition, the Emax in experiment [2] is greater than 80%.

As for `CC(C)(C)C(C)(O)c1cn2c(-c3cc(F)c(N)nc3F)cnc2cc1OCCO` (single isomer, unassigned) [Example 295], the IC50 in experiment [1] was 2.5 to 20 nM; in experiment [2], 2.5 to 20 nM; in experiment [3], greater than 1000 nM. Moreover, the Emax in experiment [2] was greater than 80%.

On to `COc1c(F)cc(-c2cnc3cc(OCCO)c(S(=O)(=O)C(C)(C)C)cn23)cc1NS(=O)(=O)c1cnn(C)c1` [Example 225, N-(5-(6-(tert-butylsulfonyl)-7-(2-hydroxyethoxy)imidazo[1,2-a]pyridin-3-yl)-3-fluoro-2-methoxyphenyl)-1-methyl-1H-pyrazole-4-sulfonamide], for which the IC50 in experiment [1] is less than 1 nM; in experiment [2], less than 1 nM; in experiment [3], less than 50 nM. For the same molecule, the Emax in experiment [2] is greater than 80%.

Take `CN(C)CCOc1cc2ncc(-c3cc(F)c(N)nc3F)n2cc1S(=O)(=O)C(C)(C)C` [Example 20, 5-(6-(tert-butylsulfonyl)-7-(2-(dimethylamino)ethoxy)imidazo[1,2-a]pyridin-3-yl)-3,6-difluoropyridin-2-amine]: the figures for the IC50 in experiment [1], in experiment [2] and in experiment [3] were 2.5 to 20 nM, greater than 20 nM and greater than 1000 nM, respectively. For the same molecule, the Emax in experiment [2] was greater than 80%.

In the case of `Cc1nc(N)c(F)cc1-c1cnc2cc(OCCO)c(S(=O)(=O)C(C)(C)C)cn12` [Example 51, 2-((3-(6-amino-5-fluoro-2-methylpyridin-3-yl)-6-(tert-butylsulfonyl)imidazo[1,2-a]pyridin-7-yl)oxy)ethan-1-ol], the IC50 was greater than 20 nM in experiment [1], greater than 20 nM in experiment [2] and greater than 1000 nM in experiment [3]. Also, the Emax in experiment [2] was less than 30%.

For `C[C@H](CO)COc1cc2ncc(-c3cc(F)c(N)nc3F)n2cc1S(=O)(=O)C(C)(C)C` [Example 176, (R)-3-((3-(6-amino-2,5-difluoropyridin-3-yl)-6-(tert-butylsulfonyl)imidazo[1,2-a]pyridin-7-yl)oxy)-2-methylpropan-1-ol], the IC50 in experiment [1] is 1 to 2.5 nM; in experiment [2], 1 to 2.5 nM; in experiment [3] it was 50 to 250 nM. For the same molecule, in experiment [2], the Emax was greater than 80%.

Consider `COc1cc2ncc(-c3cc(F)c(OC)c(NS(=O)(=O)CC(F)(F)F)c3)n2cc1S(=O)(=O)C(C)(C)C` [Example 143, N-(5-(6-(tert-butylsulfonyl)-7-methoxyimidazo[1,2-a]pyridin-3-yl)-3-fluoro-2-methoxyphenyl)-2,2,2-trifluoroethane-1-sulfonamide], for which the IC50 in experiment [1] lay within 1 to 2.5 nM; in experiment [2], 1 to 2.5 nM; in experiment [3], 250 to 1000 nM. The Emax in experiment [2] fell in the range of 55 to 80%.

In the case of `COc1cc2ncc(-c3cc(F)c(N)nc3F)n2cc1S(=O)(=O)c1cn[nH]c1` [Example 78, 5-(6-((1H-pyrazol-4-yl)sulfonyl)-7-methoxyimidazo[1,2-a]pyridin-3-yl)-3,6-difluoropyridin-2-amine], the IC50 was 2.5 to 20 nM in experiment [1], 2.5 to 20 nM in experiment [2] and greater than 1000 nM in experiment [3]. Further, in experiment [2], the Emax is greater than 80%.

In the case of `COc1cc2ncc(-c3cc(F)c4nc(C)cn4c3)n2cc1S(=O)(=O)C(C)(C)C` [Example 109, 6-(tert-butylsulfonyl)-8′-fluoro-7-methoxy-2′-methyl-3,6′-biimidazo[1,2-a]pyridine], the IC50 in experiment [1] was greater than 20 nM; in experiment [2] it was greater than 20 nM; in experiment [3], greater than 1000 nM. The Emax in experiment [2] is less than 30%.

Take `COc1cc2ncc(-c3ccc4c(c3)nc(N)n4C)n2cc1S(=O)(=O)C(C)(C)C` [Example 115, 5-(6-(tert-butylsulfonyl)-7-methoxyimidazo[1,2-a]pyridin-3-yl)-1-methyl-1H-benzo[d]imidazol-2-amine]: the IC50 in experiment [1] was greater than 20 nM; in experiment [2] it was greater than 20 nM; in experiment [3] it was greater than 1000 nM. For the same molecule, the Emax in experiment [2] was in the range of 55 to 80%.

As for `COc1cc2ncc(-c3cc(NS(=O)(=O)C4(CO)CC4)c(OC)c(OC)c3)n2cc1S(=O)(=O)C(C)(C)C` [Example 178, N-(5-(6-(tert-butylsulfonyl)-7-methoxyimidazo[1,2-a]pyridin-3-yl)-2,3-dimethoxyphenyl)-1-(hydroxymethyl)cyclopropane-1-sulfonamide], the IC50 in experiment [1] is less than 1 nM; in experiment [2], less than 1 nM; in experiment [3], less than 50 nM. The Emax in experiment [2] was greater than 80%.

For `COc1c(F)cc(-c2cnc3cc(OC[C@@H](C)O)c(S(=O)(=O)C(C)(C)C)cn23)cc1NS(=O)(=O)c1cnn(C)c1` [Example 253, (R)-N-(5-(6-(tert-butylsulfonyl)-7-(2-hydroxypropoxy)imidazo [1,2-a]pyridin-3-yl)-3-fluoro-2-methoxyphenyl)-1-methyl-1H-pyrazole-4-sulfonamide], the IC50 is 1 to 2.5 nM in experiment [1], less than 1 nM in experiment [2] and less than 50 nM in experiment [3]. Also, the Emax in experiment [2] is greater than 80%.

For the molecule `COc1cc2ncc(-c3cc(F)c(N)nc3F)n2cc1S(=O)(=O)N1CCN(C)CC1` [Example 165, 3,6-difluoro-5-(7-methoxy-6-((4-methylpiperazin-1-yl)sulfonyl)imidazo[1,2-a]pyridin-3-yl)pyridin-2-amine], the IC50 in experiment [1] is greater than 20 nM; in experiment [2] it was greater than 20 nM; in experiment [3], greater than 1000 nM. Besides, in experiment [2], the Emax was greater than 80%.

As for `C[C@@H](O)COc1cc2ncc(-c3cc4cc[nH]c4nc3F)n2cc1S(=O)(=O)C(C)(C)C` [Example 251, (R)-1-((6-(tert-butylsulfonyl)-3-(6-fluoro-1H-pyrrolo[2,3-b]pyridin-5-yl)imidazo[1,2-a]pyridin-7-yl)oxy)propan-2-ol], the IC50 in experiment [1] was less than 1 nM; in experiment [2] it was less than 1 nM; in experiment [3], less than 50 nM. In experiment [2], the Emax was greater than 80%.

On to `CC(F)(CO)COc1cc2ncc(-c3cc(F)c(N)nc3F)n2cc1S(=O)(=O)C(C)(C)C` (centres unmarked) [Example 204, 3-((3-(6-amino-2,5-difluoropyridin-3-yl)-6-(tert-butylsulfonyl)imidazo [1,2-a]pyridin-7-yl)oxy)-2-fluoro-2-methylpropan-1-ol], for which the IC50 lay in the range of 1 to 2.5 nM in experiment [1], 1 to 2.5 nM in experiment [2] and 50 to 250 nM in experiment [3]. Also, the Emax in experiment [2] was greater than 80%.

On to `COc1cc2ncc(-c3cc(F)c(OC)c(NS(=O)(=O)CC4COC4)c3)n2cc1S(=O)(=O)C(C)(C)C` [Example 160, N-(5-(6-(tert-butylsulfonyl)-7-methoxyimidazo[1,2-a]pyridin-3-yl)-3-fluoro-2-methoxyphenyl)-1-(oxetan-3-yl)methanesulfonamide], for which the values for the half-maximal inhibitory concentration (IC50) in experiment [1], in experiment [2] and in experiment [3] were less than 1 nM, less than 1 nM and less than 50 nM, respectively. Besides, the Emax in experiment [2] was greater than 80%.

For the molecule `COc1cc2ncc(-c3cc(F)c(OC)c(NS(=O)(=O)c4cnn(C)c4C)c3)n2cc1S(=O)(=O)C(C)(C)C` [Example 280, N-(5-(6-(tert-butylsulfonyl)-7-methoxyimidazo[1,2-a]pyridin-3-yl)-3-fluoro-2-methoxyphenyl)-1,5-dimethyl-1H-pyrazole-4-sulfonamide], the IC50 was 1 to 2.5 nM in experiment [1], 1 to 2.5 nM in experiment [2] and 50 to 250 nM in experiment [3]. Besides, the Emax in experiment [2] is greater than 80%.

On to `C[C@@H](O)COc1cn2ncc(-c3cc(F)c(N)nc3F)c2cc1S(=O)(=O)C(C)(C)C` [Example 259, (R)-1-((3-(6-amino-2,5-difluoropyridin-3-yl)-5-(tert-butylsulfonyl)pyrazolo [1,5-a]pyridin-6-yl)oxy)propan-2-ol], for which the IC50 is 2.5 to 20 nM in experiment [1], 1 to 2.5 nM in experiment [2] and 50 to 250 nM in experiment [3]. Also, the Emax in experiment [2] was greater than 80%.

Turning to `COc1c(F)cc(-c2cnc3cc(OC[C@@H](C)O)c(S(=O)(=O)C(C)(C)C)cn23)cc1NS(C)(=O)=O` [Example 255, (R)-N-(5-(6-(tert-butylsulfonyl)-7-(2-hydroxypropoxy)imidazo [1,2-a]pyridin-3-yl)-3-fluoro-2-methoxyphenyl) methanesulfonamide], the results for the IC50 in experiment [1], in experiment [2] and in experiment [3] were 1 to 2.5 nM, less than 1 nM and 50 to 250 nM, respectively. The Emax in experiment [2] lay within 55 to 80%.
